The source of these data is US20050090505A1, “Methods of reducing risk of infection from pathogens” (priority 2003, published 2005).

Structures are written as SMILES.

As a reminder, the EC50 is the concentration at which the effect is half-maximal. The melting point is the temperature, or range, at which the solid turns liquid.

The target of data set [1] is T1, airway epithelial sodium currents (sodium channel) (UniProt A0A8I3MKE6+A0A8I3Q679+Q95165).
T1 sequence (A0A8I3MKE6 1-646): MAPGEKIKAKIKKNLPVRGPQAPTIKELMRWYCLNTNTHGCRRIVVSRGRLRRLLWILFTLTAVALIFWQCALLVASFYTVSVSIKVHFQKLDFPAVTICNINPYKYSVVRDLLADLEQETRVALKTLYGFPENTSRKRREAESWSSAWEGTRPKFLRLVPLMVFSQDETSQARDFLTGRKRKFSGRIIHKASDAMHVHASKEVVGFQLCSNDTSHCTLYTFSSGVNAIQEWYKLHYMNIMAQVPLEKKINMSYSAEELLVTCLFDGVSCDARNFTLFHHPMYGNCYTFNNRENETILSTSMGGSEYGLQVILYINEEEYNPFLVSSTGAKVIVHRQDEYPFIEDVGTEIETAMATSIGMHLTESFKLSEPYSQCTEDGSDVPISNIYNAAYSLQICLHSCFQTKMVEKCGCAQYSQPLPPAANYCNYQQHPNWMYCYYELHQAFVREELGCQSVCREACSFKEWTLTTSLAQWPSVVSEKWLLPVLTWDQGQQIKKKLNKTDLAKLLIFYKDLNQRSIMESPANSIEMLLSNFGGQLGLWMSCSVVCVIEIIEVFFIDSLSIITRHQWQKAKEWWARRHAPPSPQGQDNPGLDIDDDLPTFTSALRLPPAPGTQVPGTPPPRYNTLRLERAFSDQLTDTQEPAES
T1 sequence (A0A8I3Q679 1-649): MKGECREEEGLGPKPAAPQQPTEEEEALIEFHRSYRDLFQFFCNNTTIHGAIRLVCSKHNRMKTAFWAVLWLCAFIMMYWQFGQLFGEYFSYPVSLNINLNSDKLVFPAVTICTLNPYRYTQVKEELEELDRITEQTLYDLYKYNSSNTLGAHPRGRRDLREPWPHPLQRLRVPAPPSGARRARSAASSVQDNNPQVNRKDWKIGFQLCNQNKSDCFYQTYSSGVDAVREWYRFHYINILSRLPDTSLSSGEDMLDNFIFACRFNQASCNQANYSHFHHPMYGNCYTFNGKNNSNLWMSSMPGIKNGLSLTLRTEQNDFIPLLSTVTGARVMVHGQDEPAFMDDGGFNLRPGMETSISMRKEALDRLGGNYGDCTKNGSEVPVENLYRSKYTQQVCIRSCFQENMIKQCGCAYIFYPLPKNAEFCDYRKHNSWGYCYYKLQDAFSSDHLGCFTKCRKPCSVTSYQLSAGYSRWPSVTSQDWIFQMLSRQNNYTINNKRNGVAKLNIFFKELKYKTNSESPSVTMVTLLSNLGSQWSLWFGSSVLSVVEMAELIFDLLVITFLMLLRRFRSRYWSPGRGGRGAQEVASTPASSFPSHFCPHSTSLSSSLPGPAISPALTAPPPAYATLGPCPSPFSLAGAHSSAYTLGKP
T1 sequence (Q95165 1-641): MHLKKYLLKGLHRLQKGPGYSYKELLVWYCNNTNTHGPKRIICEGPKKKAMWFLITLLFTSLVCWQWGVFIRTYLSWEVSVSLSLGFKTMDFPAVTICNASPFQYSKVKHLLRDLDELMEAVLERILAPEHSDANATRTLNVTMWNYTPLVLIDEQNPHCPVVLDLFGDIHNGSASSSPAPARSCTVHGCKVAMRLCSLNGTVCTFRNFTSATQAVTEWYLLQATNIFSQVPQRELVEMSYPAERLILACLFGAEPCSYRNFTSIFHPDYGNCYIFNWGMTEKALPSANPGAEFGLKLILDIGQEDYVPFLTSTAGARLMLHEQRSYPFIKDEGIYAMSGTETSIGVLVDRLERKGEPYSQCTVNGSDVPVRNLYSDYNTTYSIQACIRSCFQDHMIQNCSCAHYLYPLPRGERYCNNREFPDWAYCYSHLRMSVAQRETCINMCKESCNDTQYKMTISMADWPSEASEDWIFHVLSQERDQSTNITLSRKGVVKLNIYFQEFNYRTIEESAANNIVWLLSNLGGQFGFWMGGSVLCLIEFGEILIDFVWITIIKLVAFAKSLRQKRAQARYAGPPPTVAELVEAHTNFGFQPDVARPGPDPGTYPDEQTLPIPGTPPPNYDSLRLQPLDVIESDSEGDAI
Briefly: Sodium channel blocking activity: inhibition of short circuit current (ISC) in airway epithelial monolayers mounted in Ussing chambers. It counts as cell-based, human, dog, sheep or rodent. To be noted: for Fold Amiloride** (PSA 4022 = 100): relative potency for PSA 4022 = 100 using EC50 from PSA 4022 in same run; for EC50: Selected Alaphatic Pyrazinoylguanidines (Formula II), mean ± spread, read-out: EC50. The method in brief:
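Human, dog, sheep or rodent airway epithelial cells were grown at air-liquid interface and mounted in Ussing chambers bathed in Krebs Bicarbonate Ringer. Drug was added lumenally in half-log cumulative doses from 1×10^−11 M to 3×10^−5 M, with inhibition of ISC recorded for IC50. Reversibility is percent return to baseline current after three drug-free washes.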

`CC(C)(C)OC(=O)NCCCCCCCCCNC(=N)NC(=O)c1nc(Cl)c(N)nc1N` [compound 19484, {9-[N′-(3,5-diamino-6-chloropyrazine-2-carbonyl)guanidino]nonyl}-carbamic acid tert-butyl ester] yielded a melting point of 187 to 189 °C. For the same compound, in data set [1] (Alaphatic Pyrazinoylguanidines), the “Fold Amiloride** (PSA 4022 = 100)” value amounted to 12. The EC50 in data set [1] was 0.066 µM.
As to `N=C(NCCCCc1ccc(OCCCc2ncc[nH]2)cc1)NC(=O)c1nc(Cl)c(N)nc1N` [compound 23022, N-(3,5-diamino-6-chloropyrazine-2-carbonyl)-N′-(4-{4-[3-(1H-imidazol-2-yl)propoxy]phenyl}butyl)guanidine], the melting point is 123 to 126 °C (dec.). Besides, the “Fold Amiloride** (PSA 4022 = 100)” value in data set [1] (Capped Pyrazinoylguanidines) is 79 ± 15.
Regarding `CC(C)(C)OC(=O)NCCCCCCCCCCCCNC(=N)NC(=O)c1nc(Cl)c(N)nc1N` [compound 23776, {12-[N′-(3,5-diamino-6-chloropyrazine-2-carbonyl)guanidino]dodecyl}-carbamic acid tert-butyl ester], the melting point was in the range of 154 to 156 °C. In addition, the “Fold Amiloride** (PSA 4022 = 100)” value in data set [1] (Alaphatic Pyrazinoylguanidines) was 7. In data set [1], the EC50 stood at 0.075 µM.
